Measurements: patent publication US9561230B2, “Aryl-substituted tricyclic sulfonamides as methionyl aminopeptidase 2 modulators” (Zafgen, Inc., priority 2011, dated 2017)

Each compound was assayed against T1, recombinant human MetAP2 (Homo sapiens, UniProt P50579) (assay: Inhibition of recombinant human MetAP2 activity (MAS substrate, amino acid oxidase/Amplex red fluorescence)). Conditions: manganese enzyme, 0.75 mM MAS substrate, 30 minutes at 25° C., pH 7.5, 1% DMSO; read-out: Activity (IC50 class, MetAP2 inhibition).
T1 construct: made in house; host or cells: Sf9 insect cells
T1 sequence (P50579 whole entry): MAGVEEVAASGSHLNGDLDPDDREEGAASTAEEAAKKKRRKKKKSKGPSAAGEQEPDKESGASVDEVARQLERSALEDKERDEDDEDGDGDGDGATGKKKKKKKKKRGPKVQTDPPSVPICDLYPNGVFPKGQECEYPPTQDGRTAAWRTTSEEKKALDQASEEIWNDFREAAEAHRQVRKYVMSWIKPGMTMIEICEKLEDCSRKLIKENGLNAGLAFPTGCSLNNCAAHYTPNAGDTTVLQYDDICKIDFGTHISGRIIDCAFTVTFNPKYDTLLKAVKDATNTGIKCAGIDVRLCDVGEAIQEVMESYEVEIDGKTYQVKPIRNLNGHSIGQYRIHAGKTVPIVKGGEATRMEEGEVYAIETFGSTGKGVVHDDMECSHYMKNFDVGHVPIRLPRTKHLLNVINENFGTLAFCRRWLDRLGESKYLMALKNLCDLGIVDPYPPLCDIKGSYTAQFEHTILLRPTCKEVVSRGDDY
Format: biochemical
Procedure: Compounds are tested for their capacity to inhibit recombinant human MetAP2 activity using the following assay.
Human recombinant MetAP2 expressed in Sf9 cells followed by affinity purification and EDTA treatment to remove endogenous active site cation was dialysed against MnCl2 to produce the manganese enzyme used in the assay. The assay was carried out for 30 minutes at 25° C. in 50 mM HEPES buffer containing 100 mM NaCl, pH 7.5 the presence of 0.75 mM Methionine-Alanine-Serine (MAS) substrate and 50 μg/ml amino acid oxidase using a dilution of purified MetAP2 giving>3-fold signal:noise. Cleavage of the substrate by MetAP2 and oxidation of free methionine by amino acid oxidase was detected and quantified using fluorescence generated by Amplex red (10-acetyl-3,7-dihydroxyphenoxazine) in combination with horseradish peroxidase which detects H2O2 released during the oxidation step. The fluorescent signal was detected using a multiwell fluorimeter. Compounds were diluted in DMSO prior to addition to assay buffer, the final DMSO concentration in the assay being 1%.
The IC50 is defined as the concentration at which a given compound achieves 50% inhibition of control. IC50 values are calculated using the XLfit software package (version 2.0.5).
`CCN(CC)C/C=C\c1cc(F)ccc1S(=O)(=O)Nc1ccc2c(nc3n2CCC3)c1C(=O)O` [6-[2-((Z)-3-Diethylaminoprop-1-enyl)-4-fluorobenzenesulfonylamino]-2,3-dihydro-1H-benzo[d]pyrrolo[1,2-a]imidazole-5-carboxylic acid] gave an IC50 greater than 500 nM.
`O=C(O)c1c(NS(=O)(=O)c2ccccc2)ccc2c1cc1n2CCC1` [7-Benzenesulfonylamino-2,3-dihydro-1H-pyrrolo[1,2-a]indole-8-carboxylic acid] was tested, and the IC50 was greater than 500 nM.
With `CCN(CC)C/C=C\c1cc(F)ccc1S(=O)(=O)Nc1ccc2c(c1C(=O)O)CCC1CCCN21` (centres unmarked) [7-[2-((Z)-3-Diethylaminoprop-1-enyl)-4-fluorobenzenesulfonylamino]-1,2,3,3a,4,5-hexahydropyrrolo[1,2-a]quinoline-6-carboxylic acid] the IC50 was 50 to 500 nM.
In the case of `CCN(CC)C/C=C\c1cc(F)ccc1S(=O)(=O)Nc1ccc2c(c1C(=O)O)CC1CCCN21` (centres unmarked) [7-[2-((Z)-3-Diethylaminoprop-1-enyl)-4-fluorobenzenesulfonylamino]-2,3,9,9a-tetrahydro-1H-pyrrolo[1,2-a]indole-8-carboxylic acid], the IC50 is reported as 50 to 500 nM.
With `CCN(CC)C/C=C\c1cc(F)ccc1S(=O)(=O)Nc1ccc2c(cc3n2CCC3)c1C(=O)O` [7-[2-((Z)-3-Diethylaminoprop-1-enyl)-4-fluorobenzenesulfonylamino]-2,3-dihydro-1H-pyrrolo[1,2-a]indole-8-carboxylic acid] the IC50 was less than 50 nM.
With `CCN(CC)C/C=C\c1cc(F)ccc1S(=O)(=O)Nc1ccc2c(c1C(=O)O)OC[C@H]1CCN21` [(R)-6-[2-((Z)-3-Diethylaminoprop-1-enyl)-4-fluorobenzenesulfonylamino]-1,2,2a,3-tetrahydro-4-oxa-8b-azacyclobuta[a]naphthalene-5-carboxylic acid] the IC50 was greater than 500 nM.
Compound `CCN(CC)C/C=C\c1cc(F)ccc1S(=O)(=O)Nc1ccc2c(c1C(=O)O)OC[C@H]1CCCN21` [(R)-7-[2-((Z)-3-Diethylaminoprop-1-enyl)-4-fluorobenzenesulfonyl-amino]-2,3,3a,4-tetrahydro-1H-benzo[b]pyrrolo[1,2-d][1,4]oxazine-6-carboxylic acid] has an IC50 of 50 to 500 nM.
For `CCN(CC)C/C=C\c1cc(F)ccc1S(=O)(=O)Nc1ccc2c(c1C(=O)O)OC[C@@H]1CCCN21` [(S)-7-[2-((Z)-3-Diethylaminoprop-1-enyl)-4-fluorobenzenesulfonyl-amino]-2,3,3a,4-tetrahydro-1H-benzo[b]pyrrolo[1,2-d][1,4]oxazine-6-carboxylic acid], the IC50 was 50 to 500 nM.
